Laboratory results from ChEMBL document CHEMBL3124760, “Inhibitors of NS5A for Treatment of HCV Infection” (ACS Med Chem Lett, 2014).

System: Hepatitis C virus
Assay: Antiviral activity against Hepatitis C virus genotype 1a expressing neomycin phosphotransferase after 3 days by luciferase reporter gene assay
Format: functional, organism-based, Hepacivirus hominis
Settings: subtype 1a, 72 h

Row | EC50 [pM] | SMILES
1 | 6 | COC(=O)N[C@H](C(=O)N1CCC[C@H]1c1nc2cc(-c3ccc4cc(-c5cnc([C@@H]6C[C@H]7C[C@H]7N6C(=O)[C@@H](NC(=O)OC)C(C)C)[nH]5)ccc4c3)ccc2c(=O)[nH]1)C(C)C
2 | 8 | COC(=O)N[C@H](C(=O)N1CC2(C[C@H]1c1ncc(-c3ccc4cc(-c5ccc6c(=O)[nH]c([C@@H]7C[C@H]8C[C@H]8N7C(=O)[C@@H](NC(=O)OC)C(C)C)nc6c5)ccc4c3)[nH]1)OCCO2)C(C)C
3 | 6 | COC(=O)N[C@H](C(=O)N1CCC[C@H]1c1ncc(-c2ccc3cc(-c4ccc5c(=O)[nH]c([C@@H]6C[C@@H]7CCCC[C@@H]7N6C(=O)[C@@H](NC(=O)OC)C(C)C)nc5c4)ccc3c2)[nH]1)C(C)C
4 | 26 | COC(=O)N[C@H](C(=O)N1CC2(C[C@H]1c1nc3cc(-c4ccc5cc(-c6cnc([C@@H]7C[C@H]8C[C@H]8N7C(=O)[C@@H](NC(=O)OC)C(C)C)[nH]6)ccc5c4)ccc3c(=O)[nH]1)OCCCO2)C(C)C
